Assay results from patent publication US4521335A, “Aglycone and pseudo-aglycones of the AAD 216 antibiotics” (SmithKline Beckman Corporation, priority 1984, dated 1985).
≈ marks a conversion by molar mass, not a printed value.

Tests used:
Staph. aureus HH127 = test: MIC, standard microtiter assay; assay type: cell-based
Strep. faecilis HH34358 = test: MIC, standard microtiter assay; assay type: cell-based
[1] = system: k. pneumoniae 4200 (SK & F 798); test: MIC, standard microtiter assay; assay type: cell-based; settings: Klebsiella pneumoniae
[2] = system: Proteus morgani SK & F 179; test: MIC, standard microtiter assay; assay type: cell-based
Providencia SK & F 276 = test: MIC, standard microtiter assay; assay type: cell-based
[3] = system: Staph. epidermidis SK & F 2479; test: MIC, standard microtiter assay; assay type: cell-based; settings: Staphylococcus epidermidis
[4] = system: Listeria monocytogenes SK & F 2255; test: MIC, standard microtiter assay; assay type: cell-based
Staph. aureus SK & F 674 = test: MIC, standard microtiter assay; assay type: cell-based; settings: Staphylococcus aureus
[5] = system: Staph. aureus SK & F 1761; test: MIC, standard microtiter assay; assay type: cell-based; settings: Staphylococcus aureus
[6] = system: Staph. aureus SK & F 2678; test: MIC, standard microtiter assay; assay type: cell-based; settings: Staphylococcus aureus
[7] = system: Staph. aureus SK & F 2680; test: MIC, standard microtiter assay; assay type: cell-based; settings: Staphylococcus aureus
[8] = system: Staph. aureus SK & F 2682; test: MIC, standard microtiter assay; assay type: cell-based; settings: Staphylococcus aureus
[9] = system: Staph. aureus SK & F 2736; test: MIC, standard microtiter assay; assay type: cell-based; settings: Staphylococcus aureus
[10] = system: Staph. aureus SK & F 2776; test: MIC, standard microtiter assay; assay type: cell-based; settings: Staphylococcus aureus
[11] = system: Staph. aureus SK & F 2777; test: MIC, standard microtiter assay; assay type: cell-based; settings: Staphylococcus aureus
[12] = system: Staph. aureus SK & F 2615; test: MIC, standard microtiter assay; assay type: cell-based; settings: Staphylococcus aureus
[13] = system: Staph. aureus SK & F 2612; test: MIC, standard microtiter assay; assay type: cell-based; settings: Staphylococcus aureus
[14] = system: Staph. aureus SK & F 2614; test: MIC, standard microtiter assay; assay type: cell-based; settings: Staphylococcus aureus
[15] = system: Staph. aureus SK & F 2616; test: MIC, standard microtiter assay; assay type: cell-based; settings: Staphylococcus aureus
[16] = system: Staph. aureus SK & F 2594; test: MIC, standard microtiter assay; assay type: cell-based; settings: Staphylococcus aureus
[17] = system: Staph. aureus SK & F 2589; test: MIC, standard microtiter assay; assay type: cell-based; settings: Staphylococcus aureus
[18] = system: Staph. aureus SK & F 2590; test: MIC, standard microtiter assay; assay type: cell-based; settings: Staphylococcus aureus
[19] = system: Staph. aureus SK & F 2592; test: MIC, standard microtiter assay; assay type: cell-based; settings: Staphylococcus aureus
[20] = system: Staph. aureus SK & F 2595; test: MIC, standard microtiter assay; assay type: cell-based; settings: Staphylococcus aureus
[21] = system: Staph. aureus SK & F 2596; test: MIC, standard microtiter assay; assay type: cell-based; settings: Staphylococcus aureus
B. fragilis H145 = test: MIC, standard microtiter assay; assay type: cell-based; settings: Bacteroides fragilis
[22] = system: B. thetaiotamicron SK & F 3089; test: MIC, standard microtiter assay; assay type: cell-based
[23] = system: Clostridium perfringens MCP-1; test: microbe, parasite or virus in culture; assay type: cell-based; settings: MCP1
C. perfringens MCP-2 = test: microbe, parasite or virus in culture; assay type: cell-based; settings: Clostridium perfringens
[24] = system: C. perfringens ATCC 19408; test: microbe, parasite or virus in culture; assay type: cell-based; settings: Clostridium perfringens, ATCC19408
[25] = system: Clostridium difficile SK & F 3062; test: MIC, standard microtiter assay; assay type: cell-based; settings: Clostridioides difficile
C. difficile SK & F 3096 = test: MIC, standard microtiter assay; assay type: cell-based; settings: Clostridioides difficile
[26] = system: Staph. aureus SK & F 209P; test: MIC, standard microtiter assay; assay type: cell-based; settings: Staphylococcus aureus
[27] = system: Staph. aureus SK & F 209P-mutant; test: microbe, parasite or virus in culture; assay type: cell-based; settings: Staphylococcus aureus
[28] = system: Staph. aureus SK & F 674-P6-mutant; test: microbe, parasite or virus in culture; assay type: cell-based; settings: Staphylococcus aureus
[29] = system: Staph. epidermidis SK & F 2265; test: MIC, standard microtiter assay; assay type: cell-based; settings: Staphylococcus epidermidis
[30] = system: Strep. faecalis SK & F 657; test: MIC, standard microtiter assay; assay type: cell-based; settings: Enterococcus faecalis
E. coli SK & F 12140 = test: MIC, standard microtiter assay; assay type: cell-based; settings: Escherichia coli
[31] = system: Salmonella gallinarum BC-595; test: microbe, parasite or virus in culture; assay type: cell-based; settings: Salmonella enterica
[32] = system: Bacteroides Fragilis ATCC; test: MIC, standard microtiter assay; assay type: cell-based
B. thetaiotomicron H-145 = test: MIC, standard microtiter assay; assay type: cell-based
C. difficile SK & F 3141 = test: MIC, standard microtiter assay; assay type: cell-based; settings: Clostridioides difficile
[33] = system: inoculum (rumen cannula filtrate); test: rumen in vitro model, growth promotant activity; settings: experiment III; for GLU (% Control): glucose; for LYS (% Control): lysine; for Propionate % (% Control): propionate as percentage of total VFA; for VFA (% Control): total volatile fatty acids

SMILES: CN[C@H](CC(C)C)C(=O)N[C@H]1C(=O)N[C@@H](CC(N)=O)C(=O)N[C@H]2C(=O)N[C@H]3C(=O)N[C@H](C(=O)N[C@H](C(=O)O)c4cc(O)cc(O)c4-c4cc3ccc4O)[C@H](O)c3ccc(c(Cl)c3)Oc3cc2cc(c3O[C@@H]2O[C@H](CO)[C@@H](O)[C@H](O)[C@H]2O[C@H]2C[C@](C)(N)[C@H](O)[C@H](C)O2)Oc2ccc(cc2Cl)[C@H]1O [Vancomycin, vancomycin]
- MIC (Staph. aureus HH127; Staphylococcus aureus, HH127): 1.6 mg/L (≈ 1.1 µM)
- MIC (Staph. aureus HH127; Table A, Staph. aureus HH127): 1.6 mg/L (≈ 1.1 µM)
- MIC (Staph. aureus HH127; Table E, Staph. aureus HH127): 1.6 mg/L (≈ 1.1 µM)
- MIC (Strep. faecilis HH34358): 3.1 mg/L (≈ 2.14 µM)
- MIC [1]: > 100 mg/L
- MIC [2]: > 100 mg/L
- MIC (Providencia SK & F 276): > 100 mg/L
- MIC ([3]; Table A): 1.6 mg/L (≈ 1.1 µM)
- MIC ([3]; Table E): 3.1 mg/L (≈ 2.14 µM)
- MIC ([4]; Table A): 1.6 mg/L (≈ 1.1 µM)
- MIC ([4]; Table E): 0.8 mg/L (≈ 0.552 µM)
- MIC (Staph. aureus SK & F 674): 1.6 mg/L (≈ 1.1 µM)
- MIC [5]: 1.6 mg/L (≈ 1.1 µM)
- MIC [6]: 1.6 mg/L (≈ 1.1 µM)
- MIC [7]: 1.6 mg/L (≈ 1.1 µM)
- MIC [8]: 1.6 mg/L (≈ 1.1 µM)
- MIC [9]: 1.6 mg/L (≈ 1.1 µM)
- MIC [10]: 1.6 mg/L (≈ 1.1 µM)
- MIC [11]: 0.8 mg/L (≈ 0.552 µM)
- MIC [12]: 3.1 mg/L (≈ 2.14 µM)
- MIC [13]: 1.6 mg/L (≈ 1.1 µM)
- MIC [14]: 1.6 mg/L (≈ 1.1 µM)
- MIC [15]: 0.8 mg/L (≈ 0.552 µM)
- MIC [16]: 1.6 mg/L (≈ 1.1 µM)
- MIC [17]: 1.6 mg/L (≈ 1.1 µM)
- MIC [18]: 1.6 mg/L (≈ 1.1 µM)
- MIC [19]: 3.1 mg/L (≈ 2.14 µM)
- MIC [20]: 1.6 mg/L (≈ 1.1 µM)
- MIC [21]: 3.1 mg/L (≈ 2.14 µM)
- MIC (B. fragilis H145): 32 mg/L (≈ 22.1 µM)
- MIC [22]: 32 mg/L (≈ 22.1 µM)
- MIC [23]: 0.5 mg/L (≈ 0.345 µM)
- MIC (C. perfringens MCP-2; MCP2, Table D, Anaerobes): 0.5 mg/L (≈ 0.345 µM)
- MIC (C. perfringens MCP-2; MCP2, Table F): 2 mg/L (≈ 1.38 µM)
- MIC [24]: 1 mg/L (≈ 0.69 µM)
- MIC ([25]; Table D, Anaerobes, Clostridium difficile SK & F 3062): 2 mg/L (≈ 1.38 µM)
- MIC ([25]; Table F, C. difficile SK & F 3062): 0.5 mg/L (≈ 0.345 µM)
- MIC (C. difficile SK & F 3096): 2 mg/L (≈ 1.38 µM)
- MIC [26]: 1.6 mg/L (≈ 1.1 µM)
- MIC [27]: 100 mg/L (≈ 69 µM)
- MIC [28]: 100 mg/L (≈ 69 µM)
- MIC [29]: 3.1 mg/L (≈ 2.14 µM)
- MIC [30]: 3.1 mg/L (≈ 2.14 µM)
- MIC (E. coli SK & F 12140): > 100 mg/L
- MIC [31]: > 100 mg/L
- MIC [32]: > 32 mg/L
- MIC (B. thetaiotomicron H-145): > 32 mg/L
- MIC (C. difficile SK & F 3141): 1 mg/L (≈ 0.69 µM)
- GLU (% Control) ([33]; 0.5 ppm): 17 % Control
- LYS (% Control) ([33]; 0.5 ppm): 83 % Control
- Propionate % (% Control) ([33]; 0.5 ppm): 105 % Control
- VFA (% Control) ([33]; 0.5 ppm): 97 % Control
- GLU (% Control) ([33]; 5.0 ppm): 165 % Control
- LYS (% Control) ([33]; 5.0 ppm): 85 % Control
- Propionate % (% Control) ([33]; 5.0 ppm): 130 % Control
- VFA (% Control) ([33]; 5.0 ppm): 108 % Control
- GLU (% Control) ([33]; 50.0 ppm): 189 % Control
- LYS (% Control) ([33]; 50.0 ppm): 97 % Control
- Propionate % (% Control) ([33]; 50.0 ppm): 127 % Control
- VFA (% Control) ([33]; 50.0 ppm): 107 % Control
